According to ChEMBL document CHEMBL5113458, “Structure-activity relationships of 2-pyrimidinecarbohydrazides as utrophin modulators for the potential treatment of Duchenne muscular dystrophy” (Bioorg Med Chem, 2022):
Converted amounts (≈) assume the structure as drawn.

Experiments:
[1] = Metabolic stability in mouse liver microsomes assessed as half life; type: ADME, Microsome
[2] = Metabolic stability in mouse liver microsomes assessed as intrinsic clearance per mg protein; type: ADME, Microsome; conditions: read-out: CLH
[3] = Metabolic stability in mouse hepatocytes assessed as half life; type: ADME, cell-based, Hepatocyte
[4] = Semi-thermodynamic solubility of compound at pH 7.4; type: physicochemical; conditions: buffer, read-out: Therm_solubility
[5] = Metabolic stability in mouse hepatocytes assessed as intrinsic clearance per 10^6 cells; type: ADME, cell-based, Hepatocyte; conditions: read-out: CLH
[6] = target: Utrophin (Mus musculus) (UniProt E9Q6R7); assay: Modulation of mouse Utrophin in mouse H2K mdx cells assessed as fold increase in utrophin protein level at 0.1 to 10 uM incubated for 24 hrs by Western blot analysis; type: cell-based; conditions: filed as modulator, dose 0.1-10 µM
Chain of Utrophin (Mus musculus) (E9Q6R7 as listed by the source): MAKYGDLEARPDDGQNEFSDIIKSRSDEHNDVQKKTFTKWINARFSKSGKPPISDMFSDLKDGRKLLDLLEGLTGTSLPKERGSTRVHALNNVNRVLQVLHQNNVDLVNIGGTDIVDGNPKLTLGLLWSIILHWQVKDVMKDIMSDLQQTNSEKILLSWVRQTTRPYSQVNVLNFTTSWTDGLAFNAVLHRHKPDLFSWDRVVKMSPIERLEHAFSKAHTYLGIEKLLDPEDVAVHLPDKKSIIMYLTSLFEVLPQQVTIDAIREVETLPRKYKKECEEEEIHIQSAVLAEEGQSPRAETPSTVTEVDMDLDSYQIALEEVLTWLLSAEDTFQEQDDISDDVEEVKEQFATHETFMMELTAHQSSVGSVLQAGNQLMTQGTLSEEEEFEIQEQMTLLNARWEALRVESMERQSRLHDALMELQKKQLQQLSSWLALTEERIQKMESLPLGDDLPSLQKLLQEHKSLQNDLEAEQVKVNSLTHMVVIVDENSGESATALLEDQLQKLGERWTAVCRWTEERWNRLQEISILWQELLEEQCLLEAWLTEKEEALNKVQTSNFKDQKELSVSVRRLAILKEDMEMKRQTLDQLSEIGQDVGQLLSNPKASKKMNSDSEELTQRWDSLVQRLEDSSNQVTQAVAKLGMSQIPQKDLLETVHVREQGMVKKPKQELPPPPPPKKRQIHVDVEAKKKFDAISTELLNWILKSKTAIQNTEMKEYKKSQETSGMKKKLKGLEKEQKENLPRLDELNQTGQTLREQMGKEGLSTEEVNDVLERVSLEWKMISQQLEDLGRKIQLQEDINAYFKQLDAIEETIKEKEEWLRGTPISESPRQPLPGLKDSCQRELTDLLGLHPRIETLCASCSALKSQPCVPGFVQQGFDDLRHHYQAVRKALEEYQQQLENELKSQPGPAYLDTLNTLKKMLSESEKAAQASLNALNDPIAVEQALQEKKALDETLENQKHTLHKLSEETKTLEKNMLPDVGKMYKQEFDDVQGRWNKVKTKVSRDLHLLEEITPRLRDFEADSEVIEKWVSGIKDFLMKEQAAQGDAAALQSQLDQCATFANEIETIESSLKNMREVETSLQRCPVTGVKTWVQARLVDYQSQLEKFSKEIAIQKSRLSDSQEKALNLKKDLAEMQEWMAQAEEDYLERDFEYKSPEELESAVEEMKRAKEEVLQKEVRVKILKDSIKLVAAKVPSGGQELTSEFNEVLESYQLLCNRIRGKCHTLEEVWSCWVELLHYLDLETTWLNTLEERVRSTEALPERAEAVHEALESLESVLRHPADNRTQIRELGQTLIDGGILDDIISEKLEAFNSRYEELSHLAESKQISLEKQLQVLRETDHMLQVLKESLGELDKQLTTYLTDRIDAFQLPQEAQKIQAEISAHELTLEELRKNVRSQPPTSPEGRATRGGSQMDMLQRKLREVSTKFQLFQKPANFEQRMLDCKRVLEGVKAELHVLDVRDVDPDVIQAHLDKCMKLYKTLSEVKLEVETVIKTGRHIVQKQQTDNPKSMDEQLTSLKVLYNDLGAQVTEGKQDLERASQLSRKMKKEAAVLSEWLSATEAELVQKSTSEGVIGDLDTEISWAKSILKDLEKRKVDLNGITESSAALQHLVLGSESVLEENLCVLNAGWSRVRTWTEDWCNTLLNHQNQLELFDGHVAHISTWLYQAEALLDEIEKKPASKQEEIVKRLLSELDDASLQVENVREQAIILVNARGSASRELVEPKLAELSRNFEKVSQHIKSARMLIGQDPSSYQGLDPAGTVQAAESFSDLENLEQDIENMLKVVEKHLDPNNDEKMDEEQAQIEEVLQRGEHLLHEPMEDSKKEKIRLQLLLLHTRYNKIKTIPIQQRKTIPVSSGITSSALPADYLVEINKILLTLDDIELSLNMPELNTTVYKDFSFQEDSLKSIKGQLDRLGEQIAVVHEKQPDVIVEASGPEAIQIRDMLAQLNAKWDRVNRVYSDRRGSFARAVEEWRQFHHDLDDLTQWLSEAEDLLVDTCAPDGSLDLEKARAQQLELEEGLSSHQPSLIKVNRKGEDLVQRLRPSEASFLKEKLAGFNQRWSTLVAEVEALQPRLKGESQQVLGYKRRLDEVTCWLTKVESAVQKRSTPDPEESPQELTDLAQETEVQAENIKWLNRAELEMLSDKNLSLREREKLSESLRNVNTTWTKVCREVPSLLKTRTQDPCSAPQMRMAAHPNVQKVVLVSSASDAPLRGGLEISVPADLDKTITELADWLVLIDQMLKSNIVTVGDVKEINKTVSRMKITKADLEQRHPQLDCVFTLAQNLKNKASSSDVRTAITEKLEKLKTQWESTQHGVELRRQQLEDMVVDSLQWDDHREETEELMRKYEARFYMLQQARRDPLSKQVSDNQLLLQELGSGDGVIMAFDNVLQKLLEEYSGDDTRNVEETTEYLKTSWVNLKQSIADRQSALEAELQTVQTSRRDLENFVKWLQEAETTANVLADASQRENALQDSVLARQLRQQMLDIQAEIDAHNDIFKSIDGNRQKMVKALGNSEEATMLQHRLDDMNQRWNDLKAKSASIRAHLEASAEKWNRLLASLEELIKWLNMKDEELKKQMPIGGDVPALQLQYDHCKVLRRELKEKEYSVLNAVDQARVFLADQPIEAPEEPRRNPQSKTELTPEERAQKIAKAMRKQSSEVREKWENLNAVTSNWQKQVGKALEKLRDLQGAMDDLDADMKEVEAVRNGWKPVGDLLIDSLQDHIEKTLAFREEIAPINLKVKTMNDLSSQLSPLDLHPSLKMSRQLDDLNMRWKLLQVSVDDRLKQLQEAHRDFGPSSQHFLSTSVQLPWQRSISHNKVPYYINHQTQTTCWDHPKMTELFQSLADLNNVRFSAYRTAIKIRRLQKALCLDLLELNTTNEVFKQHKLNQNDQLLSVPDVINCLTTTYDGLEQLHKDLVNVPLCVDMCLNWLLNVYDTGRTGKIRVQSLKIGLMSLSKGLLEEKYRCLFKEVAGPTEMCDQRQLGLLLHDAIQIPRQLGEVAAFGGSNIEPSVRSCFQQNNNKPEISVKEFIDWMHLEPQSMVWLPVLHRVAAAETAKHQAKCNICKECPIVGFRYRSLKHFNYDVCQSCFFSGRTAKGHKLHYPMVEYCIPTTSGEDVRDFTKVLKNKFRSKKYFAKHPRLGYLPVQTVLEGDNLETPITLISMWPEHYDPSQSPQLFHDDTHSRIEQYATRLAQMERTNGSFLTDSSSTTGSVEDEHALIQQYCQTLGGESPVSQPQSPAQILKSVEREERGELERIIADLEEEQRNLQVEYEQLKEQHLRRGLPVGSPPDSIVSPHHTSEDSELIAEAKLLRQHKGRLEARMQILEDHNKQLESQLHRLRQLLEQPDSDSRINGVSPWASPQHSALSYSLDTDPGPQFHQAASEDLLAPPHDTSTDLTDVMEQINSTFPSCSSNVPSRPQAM

half-life [1]: 7.57 h | microsomal CLint [2]: 1.53 µL/min/mg | half-life [3]: 1.77 h | solubility thermodynamic [4]: 200 µM (≈ 71.9 µg/mL) | hepatocyte CLint [5]: 13 µL/min/1e6 cells | FC [6]: 2.5
SMILES: NNC(=O)c1nc(-c2ccccc2)cc(-c2ccc(C(F)(F)F)nc2)n1
